Earlier results as cited in publication PMC9516332 (Frontiers in Oncology, 2022).
Like-named read-outs stand apart in the source and are kept apart here.

Key:
Conditions in all cases: cited from earlier work
[1] = target: panel of 255 wild-type kinases (Homo sapiens, UniProt O96017)
[2] = target: T1, panel of 255 wild-type kinases (Homo sapiens, UniProt P42681)
T1 sequence (P42681 1-527): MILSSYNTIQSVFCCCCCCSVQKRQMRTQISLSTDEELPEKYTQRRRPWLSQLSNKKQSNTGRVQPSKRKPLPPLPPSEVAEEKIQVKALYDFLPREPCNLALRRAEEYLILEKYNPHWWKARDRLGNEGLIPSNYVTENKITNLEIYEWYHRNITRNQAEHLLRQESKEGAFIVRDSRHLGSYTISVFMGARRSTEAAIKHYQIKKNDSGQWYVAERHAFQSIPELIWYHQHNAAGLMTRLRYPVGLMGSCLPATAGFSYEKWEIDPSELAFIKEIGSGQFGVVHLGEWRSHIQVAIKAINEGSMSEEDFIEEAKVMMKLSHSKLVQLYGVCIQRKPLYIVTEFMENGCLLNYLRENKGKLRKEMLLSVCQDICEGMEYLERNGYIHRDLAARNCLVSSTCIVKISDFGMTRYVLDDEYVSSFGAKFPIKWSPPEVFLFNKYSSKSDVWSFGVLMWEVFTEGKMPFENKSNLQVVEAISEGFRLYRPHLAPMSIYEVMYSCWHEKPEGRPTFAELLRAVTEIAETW

[3] = target: T2, panel of 255 wild-type kinases (Homo sapiens, UniProt Q9H093)
T2 sequence (Q9H093 1-628): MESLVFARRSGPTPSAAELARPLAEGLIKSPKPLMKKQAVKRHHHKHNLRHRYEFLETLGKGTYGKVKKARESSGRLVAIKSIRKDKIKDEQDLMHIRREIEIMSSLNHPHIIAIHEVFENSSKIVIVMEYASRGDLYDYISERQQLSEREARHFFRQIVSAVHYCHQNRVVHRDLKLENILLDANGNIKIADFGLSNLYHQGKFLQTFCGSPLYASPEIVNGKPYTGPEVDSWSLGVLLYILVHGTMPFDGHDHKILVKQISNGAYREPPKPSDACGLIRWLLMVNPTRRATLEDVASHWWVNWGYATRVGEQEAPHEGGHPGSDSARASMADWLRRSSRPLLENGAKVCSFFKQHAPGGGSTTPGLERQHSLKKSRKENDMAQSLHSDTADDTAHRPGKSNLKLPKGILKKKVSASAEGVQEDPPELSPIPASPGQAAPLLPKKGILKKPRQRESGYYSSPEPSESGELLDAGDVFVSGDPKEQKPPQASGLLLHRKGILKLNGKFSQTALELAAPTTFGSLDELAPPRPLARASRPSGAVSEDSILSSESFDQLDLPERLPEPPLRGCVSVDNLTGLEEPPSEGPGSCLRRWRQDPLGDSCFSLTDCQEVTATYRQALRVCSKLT

[4] = target: panel of 255 wild-type kinases (Homo sapiens, UniProt Q5VT25)
[5] = target: panel of 255 wild-type kinases (Homo sapiens, UniProt P24723)
[6] = target: panel of 255 wild-type kinases (Homo sapiens, UniProt Q8TDX7)
[7] = target: panel of 255 wild-type kinases (Homo sapiens, UniProt Q9Y2H1)
[8] = target: T3, panel of 255 wild-type kinases (Homo sapiens, UniProt Q8TF76)
T3 sequence (Q8TF76 1-798): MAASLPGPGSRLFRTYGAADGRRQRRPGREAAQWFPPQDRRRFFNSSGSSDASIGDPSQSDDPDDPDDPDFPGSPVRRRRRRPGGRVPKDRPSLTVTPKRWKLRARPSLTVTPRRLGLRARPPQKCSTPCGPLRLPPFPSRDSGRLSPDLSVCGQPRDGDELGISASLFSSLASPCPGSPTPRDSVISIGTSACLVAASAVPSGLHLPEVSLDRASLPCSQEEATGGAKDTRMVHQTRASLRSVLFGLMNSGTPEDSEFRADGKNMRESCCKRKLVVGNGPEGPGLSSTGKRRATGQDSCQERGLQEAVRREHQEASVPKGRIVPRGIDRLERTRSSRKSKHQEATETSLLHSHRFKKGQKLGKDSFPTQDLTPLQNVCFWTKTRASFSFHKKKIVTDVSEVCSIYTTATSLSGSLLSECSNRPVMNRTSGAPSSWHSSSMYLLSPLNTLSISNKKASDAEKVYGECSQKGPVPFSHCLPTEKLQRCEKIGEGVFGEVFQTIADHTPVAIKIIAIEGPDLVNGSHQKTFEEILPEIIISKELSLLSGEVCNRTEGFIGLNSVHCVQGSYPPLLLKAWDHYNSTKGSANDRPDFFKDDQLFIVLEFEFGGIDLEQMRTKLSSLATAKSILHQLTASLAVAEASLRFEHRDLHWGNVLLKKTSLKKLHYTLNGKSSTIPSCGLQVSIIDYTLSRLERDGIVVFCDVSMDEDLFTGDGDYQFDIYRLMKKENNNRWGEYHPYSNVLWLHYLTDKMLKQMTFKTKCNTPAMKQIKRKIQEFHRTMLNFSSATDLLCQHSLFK

[9] = target: panel of 255 wild-type kinases (Homo sapiens, UniProt P48729)
[10] = CHK2 kinase assay, 1 µmol/L single concentration, ref DOI: 10.1371/journal.pone.0092146
[11] = kinase TXK, 1 µmol/L single concentration, ref DOI: 10.1371/journal.pone.0092146
[12] = NuaK2, 1 µmol/L single concentration, ref DOI: 10.1371/journal.pone.0092146
[13] = MRCKα, 1 µmol/L single concentration, ref DOI: 10.1371/journal.pone.0092146
[14] = kinase PKCη, 1 µmol/L single concentration, ref DOI: 10.1371/journal.pone.0092146
[15] = NEK7, 1 µmol/L single concentration, ref DOI: 10.1371/journal.pone.0092146
[16] = NDR2, 1 µmol/L single concentration, ref DOI: 10.1371/journal.pone.0092146
[17] = kinase Haspin, 1 µmol/L single concentration, ref DOI: 10.1371/journal.pone.0092146
[18] = kinase CK1α, 1 µmol/L single concentration, ref DOI: 10.1371/journal.pone.0092146
[19] = CHK2 kinase assay, 1 µmol/L single concentration, ref DOI: 10.1158/1535-7163.MCT-18-0877
[20] = kinase TXK, 1 µmol/L single concentration, ref DOI: 10.1158/1535-7163.MCT-18-0877
[21] = NuaK2, 1 µmol/L single concentration, ref DOI: 10.1158/1535-7163.MCT-18-0877
[22] = MRCKα, 1 µmol/L single concentration, ref DOI: 10.1158/1535-7163.MCT-18-0877
[23] = kinase PKCη, 1 µmol/L single concentration, ref DOI: 10.1158/1535-7163.MCT-18-0877
[24] = NEK7, 1 µmol/L single concentration, ref DOI: 10.1158/1535-7163.MCT-18-0877
[25] = NDR2, 1 µmol/L single concentration, ref DOI: 10.1158/1535-7163.MCT-18-0877
[26] = kinase Haspin, 1 µmol/L single concentration, ref DOI: 10.1158/1535-7163.MCT-18-0877
[27] = kinase CK1α, 1 µmol/L single concentration, ref DOI: 10.1158/1535-7163.MCT-18-0877

| SMILES | %-inhibition CHK2 [1, 19] | %-inhibition at 1 µmol/L, TXK [2, 20] | %-inhibition, NuaK2 [3, 21] | %-inhibition, MRCKα [4, 22] | %-inhibition at 1 µmol/L, PKCη [5, 23] | %-inhibition, NEK7 [6, 24] | %-inhibition, NDR2 [7, 25] | %-inhibition at 1 µmol/L, Haspin [8, 26] | %-inhibition at 1 µmol/L, CK1α [9, 27] | further results |
| --- | --- | --- | --- | --- | --- | --- | --- | --- | --- | --- |
| CCCS(=O)(=O)Nc1ccc(F)c(C(=O)c2c[nH]c3ncc(-c4ccc(Cl)cc4)cc23)c1F [vemurafenib] |  |  |  |  |  |  |  |  |  | %-inhibition CHK2 [1, 10]: 6.32%; %-inhibition at 1 µmol/L, TXK [2, 11]: 5%; %-inhibition, NuaK2 [3, 12]: 4.36%; %-inhibition, MRCKα [4, 13]: 0.383%; %-inhibition at 1 µmol/L, PKCη [5, 14]: -22%; %-inhibition, NEK7 [6, 15]: -3.56%; %-inhibition, NDR2 [7, 16]: -2.51%; %-inhibition at 1 µmol/L, Haspin [8, 17]: -3%; %-inhibition at 1 µmol/L, CK1α [9, 18]: -4.34% |
| CC(=O)Nc1cccc(-n2c(=O)n(C3CC3)c(=O)c3c(Nc4ccc(I)cc4F)n(C)c(=O)c(C)c32)c1 [trametinib] |  |  |  |  |  |  |  |  |  | %-inhibition CHK2 [1, 10]: -5%; %-inhibition at 1 µmol/L, TXK [2, 11]: -4.66%; %-inhibition, NuaK2 [3, 12]: 9%; %-inhibition, MRCKα [4, 13]: -0.565%; %-inhibition at 1 µmol/L, PKCη [5, 14]: -8%; %-inhibition, NEK7 [6, 15]: 1.63%; %-inhibition, NDR2 [7, 16]: -1.48%; %-inhibition at 1 µmol/L, Haspin [8, 17]: 5%; %-inhibition at 1 µmol/L, CK1α [9, 18]: 3% |
| CCc1cc2c(cc1N1CCC(N3CCOCC3)CC1)C(C)(C)c1[nH]c3cc(C#N)ccc3c1C2=O [alectinib] | 96% | 2.46% | -1.06% | -0.84% | 10% | -1.33% | 4% | 8% | 22% |  |
| CC(C)(C)c1nc(-c2cccc(NS(=O)(=O)c3c(F)cccc3F)c2F)c(-c2ccnc(N)n2)s1 [dabrafenib] |  |  |  |  |  |  |  |  |  | %-inhibition CHK2 [1, 10]: 7%; %-inhibition at 1 µmol/L, TXK [2, 11]: 18%; %-inhibition, NuaK2 [3, 12]: 4.53%; %-inhibition, MRCKα [4, 13]: -1.84%; %-inhibition at 1 µmol/L, PKCη [5, 14]: 9%; %-inhibition, NEK7 [6, 15]: 2.28%; %-inhibition, NDR2 [7, 16]: -2%; %-inhibition at 1 µmol/L, Haspin [8, 17]: 9%; %-inhibition at 1 µmol/L, CK1α [9, 18]: 13% |
| CC#CC(=O)N1CCC[C@H]1c1nc(-c2ccc(C(=O)Nc3ccccn3)cc2)c2c(N)nccn12 [acalabrutinib] | -6% | 68% | 3% | -7.47% | -3.18% | -11% | -6.41% | 5.31% | 10% |  |
| O=C(c1ccc(F)c(F)c1Nc1ccc(I)cc1F)N1CC(O)([C@@H]2CCCCN2)C1 [cobimetinib] | -0.103% | 0.165% | -10% | -7% | -2% | 1.68% | 2.54% | 8% | 2% |  |
| C=CC(=O)Nc1cc(Nc2nccc(-c3cn(C)c4ccccc34)n2)c(OC)cc1N(C)CCN(C)C [osimertinib] | 6% | 82% | 4% | -4.55% | 0.117% | 0.703% | 10% | 14% | 4.46% |  |
| Cc1cc(Nc2ncc(Cl)c(Nc3ccccc3S(=O)(=O)C(C)C)n2)c(OC(C)C)cc1C1CCNCC1 [ceritinib] | 88% | 1.15% | 43% | 1.61% | 5.3% | -0.251% | 14% | 7% | 7% |  |
| CO[C@@H]1[C@H](N(C)C(=O)c2ccccc2)C[C@H]2O[C@]1(C)n1c3ccccc3c3c4c(c5c6ccccc6n2c5c31)C(=O)NC4 [midostaurin] | 36% | 25% | 99% | 14% |  | -11% | 22% | 31% | 3.51% | %-inhibition at 1 µmol/L, PKCη [5]: 84% |
| COc1cc(N2CCC(N3CCN(C)CC3)CC2)ccc1Nc1ncc(Cl)c(Nc2ccccc2P(C)(C)=O)n1 [brigatinib] |  |  |  |  |  |  |  |  |  | %-inhibition CHK2 [1]: 96%; %-inhibition at 1 µmol/L, TXK [2]: 76%; %-inhibition, NuaK2 [3]: 98%; %-inhibition, MRCKα [4]: 18%; %-inhibition at 1 µmol/L, PKCη [5]: 17%; %-inhibition, NEK7 [6]: 1.23%; %-inhibition, NDR2 [7]: 62%; %-inhibition at 1 µmol/L, Haspin [8]: 9%; %-inhibition at 1 µmol/L, CK1α [9]: 11% |
| C=CC(=O)N1CCC[C@@H](n2nc(-c3ccc(Oc4ccccc4)cc3)c3c(N)ncnc32)C1 [ibrutinib] | 14% | 98% | 6.37% | -0.621% | 3.27% | 0.69% | 3.47% | 2.53% | -2% |  |
